The IC50 is the concentration that inhibits the measured activity by half.

Sequence of human-KAT6A (MYST domain 507-778 aa) (Q92794 507-778): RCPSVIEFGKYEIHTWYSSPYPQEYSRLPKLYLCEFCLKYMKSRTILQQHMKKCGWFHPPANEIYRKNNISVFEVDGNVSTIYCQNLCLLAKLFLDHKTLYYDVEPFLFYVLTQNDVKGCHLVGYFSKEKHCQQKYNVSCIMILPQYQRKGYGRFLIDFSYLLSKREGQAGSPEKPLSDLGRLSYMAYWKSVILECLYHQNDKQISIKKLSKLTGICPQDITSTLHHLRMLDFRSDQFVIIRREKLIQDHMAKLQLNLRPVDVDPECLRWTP

For the first test, the target named is human-KAT6A (MYST domain 507-778 aa) (Homo sapiens (Human), UniProt Q92794). The experiment in a line: KAT6A biochemical assay (TR-FRET). The following applies: @ 1 μM; reported where IC50 could not be determined; read-out: Percent inhibition at specific concentration (KAT6A). An excerpt:
TR-FRET based methods were used for assaying compounds of the present invention for KAT6A enzyme inhibitory activity. TR-FRET is a homogeneous proximity assay where Europium-labelled anti-acetyl lysine antibody binds to the acetylated substrate labelled with biotin, which in turn binds to streptavidin-labelled APC fluorescence acceptor. Europium can transfer energy to APC in the complex and the interaction of two dye-labelled binding partners is detected by the energy transfer between a donor and an acceptor dye and the subsequent light emission by the acceptor dye. KAT6A transfer an acetyl group from acetyl CoA to lysine amino acids of histones/target proteins. […] The selected compound of the present invention and enzyme are incubated for 30 min on plate shaker at 300 rpm at 25° C. Next, 5 μL of substrate mix containing histone H4 peptide and acetyl-CoA in assay buffer is added to the plate. The final concentrations of H4 peptide and acetyl-CoA are 200 nM and 600 nM, respectively. Following 60 min reaction at 25° C. on plate shaker at 300 rpm, 5 μL of detection mix containing Europium-labelled anti-acetyl antibody and streptavidin-APC is added to the reaction wells. The plate is further incubated at 25° C. on shaker at 300 rpm and is read in TR-FRET mode (Ex:340 nm; Em: 615 nm and 665 nm) on a plate reader to achieve ˜5-7-fold activity. The percent inhibition was calculated from the ratio of the fluorescence (FL) intensities [(F665/F615)×10000) using the formula […]. IC50 values of the compounds were determined by fitting the dose-response data to sigmoidal curve fitting equation using Graph pad prism software V9.
Take `COc1ccc(C(C)(C)C)cc1S(=O)(=O)NC(=O)c1ccc(Cn2cccn2)c(=O)n1C` [Compound 278, 5-((1H-pyrazol-1-yl)methyl)-N-((5-(tert-butyl)-2-methoxyphenyl)sulfonyl)-1-methyl-6-oxo-1,6-dihydropyridine-2-carboxamide]: the inhibition at 1 µM turned out to be 25%.

The test is the same for the next values; noted with them: TR-FRET; histone H4 peptide 200 nM, acetyl-CoA 600 nM; read-out: KAT6A IC50.
Consider `COc1cccc(OC(F)(F)F)c1S(=O)(=O)NC(=O)c1ccc(Cn2cccn2)c(OC)n1` [Compound 235, 5-((1H-pyrazol-1-yl)methyl)-6-methoxy-N-((2-methoxy-6-(trifluoromethoxy)phenyl)sulfonyl)picolinamide], for which the IC50 worked out at 7 nM.

With `COc1cccc(OC)c1S(=N)(=O)NC(=O)c1ccc(Cn2cccn2)c(OC)n1` (centres unmarked) [Compound 243, 5-((1H-pyrazol-1-yl)methyl)-N-(2,6-dimethoxyphenylsulfonimidoyl)-6-methoxypicolinamide], the IC50 came to 23 nM.

Consider `COc1cc(OC)c(S(=O)(=O)NC(=O)c2ccc(Cn3cccn3)c(OC)n2)cc1Br` [Compound 242, 5-((1H-pyrazol-1-yl)methyl)-N-((5-bromo-2,4-dimethoxyphenyl)sulfonyl)-6-methoxypicolinamide], for which the IC50 turned out to be 10 nM.

With `COc1cc(C(=O)NS(=O)(=O)c2ccccc2OC)ccc1Cn1cccn1` [Compound 26, N-(2-methoxyphenyl)sulfonyl-3-methoxy-4-(pyrazol-1-ylmethyl)benzamide], the IC50 was found to be 25 nM.

Turning to `CCc1ccc(OC)c(S(=O)(=O)NC(=O)c2ccc(Cn3cccn3)c(OC)c2)c1OC` [Compound 66, 4-((1H-pyrazol-1-yl)methyl)-N-((3-ethyl-2,6-dimethoxyphenyl)sulfonyl)-3-methoxybenzamide], the IC50 worked out at 13 nM.

For `COc1cc(C(=O)N[S@](=N)(=O)c2c(OC)ccc(Cl)c2OC)ccc1Cn1cccn1` [Compound 302b, (S)-4-((1H-pyrazol-1-yl)methyl)-N-(3-chloro-2,6-dimethoxyphenylsulfonimidoyl)-3-methoxybenzamide], the IC50 came to 304 nM.

In the case of `COc1cc(OC)c([S@@](=N)(=O)NC(=O)c2ccc(Cn3cccn3)c(OC)c2)c(OC)c1` [Compound 299b, (S)-4-((1H-pyrazol-1-yl)methyl)-3-methoxy-N-(2,4,6-trimethoxyphenylsulfonimidoyl)benzamide], the IC50 is 226 nM.

For the molecule `COc1ccccc1S(=N)(=O)NC(=O)c1ccc(Cn2cccn2)c(OC)n1` (centres unmarked) [Compound 232, 5-((1H-pyrazol-1-yl)methyl)-6-methoxy-N-(2-methoxyphenylsulfonimidoyl)picolinamide], the IC50 stood at 95 nM.

Take `CCOc1cccc(OC)c1S(=O)(=O)NC(=O)c1ccc(Cn2cccn2)c(OC)c1` [Compound 67, 4-((1H-pyrazol-1-yl)methyl)-N-((2-ethoxy-6-methoxyphenyl)sulfonyl)-3-methoxybenzamide]: the IC50 was 11 nM.

With `COc1ccc(Cl)c(OC)c1[S@](=N)(=O)NC(=O)c1ccc(Cn2cccn2)c(OC)n1` [Compound 293a, (R)-5-((1H-pyrazol-1-yl)methyl)-N-(3-chloro-2,6-dimethoxyphenylsulfonimidoyl)-6-methoxypicolinamide], the half-inhibitory concentration (IC50) was 374 nM.

Turning to `COc1cc(C(=O)NS(=O)(=O)c2ccccc2-c2ccccc2)ccc1Cn1cccn1` [Compound 22, 4-((1H-pyrazol-1-yl)methyl)-N-([1,1′-biphenyl]-2-ylsulfonyl)-3-methoxybenzamide], the IC50 was determined as 49 nM.

For `COc1ccc2c(c1S(=O)(=O)NC(=O)c1ccc(Cn3cccn3)c(OC)n1)CCC2` [Compound 216, 5-((1H-pyrazol-1-yl)methyl)-6-methoxy-N-((5-methoxy-2,3-dihydro-1H-inden-4-yl)sulfonyl)picolinamide], the IC50 stood at 12 nM.

As for `COc1nc(C(=O)N[S@](=N)(=O)c2cccc3c2OCC3)ccc1Cn1cccn1` [Compound 303b, (S)-5-((1H-pyrazol-1-yl)methyl)-N-(2,3-dihydrobenzofuran-7-sulfonimidoyl)-6-methoxypicolinamide], the IC50 was 108 nM.

For the molecule `COc1ccc(S(=O)(=O)NC(=O)c2ccc(Cn3cccn3)c(OC)c2)c(OC)c1` [Compound 42, 4-((1H-pyrazol-1-yl)methyl)-N-((2,4-dimethoxyphenyl)sulfonyl)-3-methoxybenzamide], the IC50 came to 8 nM.

Regarding `COc1cc(Cl)cc(OC)c1S(=O)(=O)NC(=O)c1ccc(Cn2cccn2)c(OC)n1` [Compound 283, 5-((1H-pyrazol-1-yl)methyl)-N-((4-chloro-2,6-dimethoxyphenyl)sulfonyl)-6-methoxypicolinamide], the IC50 was 10 nM.

For the molecule `COc1cccc(OC)c1S(=O)(=O)NC(=O)c1ncc(Cn2cccn2)c(OC)n1` [Compound 274, 5-((1H-pyrazol-1-yl)methyl)-N-((2,6-dimethoxyphenyl)sulfonyl)-4-methoxypyrimidine-2-carboxamide], the IC50 was found to be 30 nM.

In the case of `COc1cc(C(=O)N[S@@](=N)(=O)c2c(OC)ccc(Cl)c2OC)ccc1Cn1cccn1` [Compound 302a, (R)-4-((1H-pyrazol-1-yl)methyl)-N-(3-chloro-2,6-dimethoxyphenylsulfonimidoyl)-3-methoxybenzamide], the IC50 was determined as 21 nM.

With `COc1nc(C(=O)NS(=O)(=O)c2ccc3c(c2)CCC3)ccc1Cn1cccn1` [Compound 234, 5-((1H-pyrazol-1-yl)methyl)-N-((2,3-dihydro-1H-inden-5-yl)sulfonyl)-6-methoxypicolinamide], the IC50 was 42 nM.

“5-((1H-pyrazol-1-yl)methyl)-N-((5-(tert-butyl)-2-methoxyphenyl)sulfonyl)-4-methoxypyrimidine-2-carboxamide [Compound 264]”: the IC50 was 12 nM.

In the case of `COc1cc(C(=O)NS(=O)(=O)c2ccccc2OC(F)F)ccc1Cn1cccn1` [Compound 51, 4-((1H-pyrazol-1-yl)methyl)-N-((2-(difluoromethoxy)phenyl)sulfonyl)-3-methoxybenzamide], the IC50 came out at 51 nM.

Consider `COc1cccc(OC(C)C)c1S(=O)(=O)NC(=O)c1ccc(Cn2cccn2)c(OC)n1` [Compound 221, 5-((1H-pyrazol-1-yl)methyl)-N-((2-isopropoxy-6-methoxyphenyl)sulfonyl)-6-methoxypicolinamide], for which the IC50 was determined as 5 nM.

Take `COc1nc(C(=O)N[S@@](=N)(=O)c2cccc3c2OCC3)ccc1Cn1cccn1` [Compound 303a, (R)-5-((1H-pyrazol-1-yl)methyl)-N-(2,3-dihydrobenzofuran-7-sulfonimidoyl)-6-methoxypicolinamide]: the IC50 turned out to be 26 nM.

Turning to `CCOc1ccc(CC)c(OC)c1S(=O)(=O)NC(=O)c1ccc(Cn2cccn2)c(OC)n1` [Compound 284, 5-((1H-pyrazol-1-yl)methyl)-N-((6-ethoxy-3-ethyl-2-methoxyphenyl)sulfonyl)-6-methoxypicolinamide], the IC50 is 10 nM.

As to `COc1cc(OC)c([S@](=N)(=O)NC(=O)c2ccc(Cn3cccn3)c(OC)c2)c(OC)c1` [Compound 299a, (R)-4-((1H-pyrazol-1-yl)methyl)-3-methoxy-N-(2,4,6-trimethoxyphenylsulfonimidoyl)benzamide], the IC50 was found to be 15 nM.

For `COc1cc(OC)c(S(=O)(=O)NC(=O)c2ccc(Cn3cccn3)c(OC)c2)cc1Br` [Compound 45, N-(5-bromo-2,4-dimethoxy-phenyl)sulfonyl-3-methoxy-4-(pyrazol-1-ylmethyl)benzamide], the IC50 worked out at 10 nM.

For `COc1ccc2c(c1S(=O)(=O)NC(=O)c1ccc(Cn3cccn3)c(OC)n1)OCO2` [Compound 281, 5-((1H-pyrazol-1-yl)methyl)-6-methoxy-N-((5-methoxybenzo[d][1,3]dioxol-4-yl)sulfonyl)picolinamide], the IC50 turned out to be 10 nM.

With `COc1cc(C(=O)NS(=O)(=O)c2cc(C3CC3)ccc2OC)ccc1Cn1cccn1` [Compound 29, 4-((1H-pyrazol-1-yl)methyl)-N-((5-cyclopropyl-2-methoxyphenyl)sulfonyl)-3-methoxybenzamide], the IC50 worked out at 10 nM.

As for `CCOc1cccc(OC)c1[S@@](=N)(=O)NC(=O)c1ccc(Cn2cccn2)c(OC)n1` [Compound 294b, (S)-5-((1H-pyrazol-1-yl)methyl)-N-(2-ethoxy-6-methoxyphenylsulfonimidoyl)-6-methoxypicolinamide], the IC50 is 22 nM.

With `COc1cc(C(=O)NS(=O)(=O)c2c(OC)cccc2OC(C)C)ccc1Cn1cccn1` [Compound 55, 4-((1H-pyrazol-1-yl)methyl)-N-((2-isopropoxy-6-methoxyphenyl)sulfonyl)-3-methoxybenzamide], the IC50 is 11 nM.

As for `COc1nc(C(=O)N[S@@](=N)(=O)c2c(F)cccc2F)ccc1Cn1cccn1` [Compound 308a, (R)-5-((1H-pyrazol-1-yl)methyl)-N-(2,6-difluorophenylsulfonimidoyl)-6-methoxypicolinamide], the IC50 was found to be 1580 nM.

For the molecule `COc1ccc(C2CC2)cc1S(=O)(=O)NC(=O)c1ccc(Cn2cccn2)c(OC)n1` [Compound 206, 5-((1H-pyrazol-1-yl)methyl)-N-((5-cyclopropyl-2-methoxyphenyl)sulfonyl)-6-methoxypicolinamide], the IC50 is 8 nM.
